Assay results as given in PMC8297402, “Trifluoromethyl-substituted 3,5-bis(arylidene)-4-piperidones as potential anti-hepatoma and anti-inflammation agents by inhibiting NF-кB activation” (Journal of Enzyme Inhibition and Medicinal Chemistry, 2021).
Read-outs that look alike come from different tables or passages of the source.

Key:
RAW264.7 cell = assay: MTT toxicity pre-experiment on RAW264.7 macrophagocyte; format: cell-based, mouse; conditions: for viability at 5 µM: Mus musculus, RAW264.7, BAPs 5 μM, read-out: Survival rate RAW264.7 cell; for Survival rate RAW264.7 cell: BAPs 5 μM
Protocol: Lipopolysaccharide (LPS) is a key constituent of Gram-negative bacterial endotoxin, which is used to induce an inflammatory response in corresponding inflammatory cells. TNF-α and IL-6 are two kinds of representative pro-inflammatory factors, which produced by LPS-stimulated RAW264.7 macrophage. In our pre-experiments, the toxicity against RAW264.7 macrophagocyte for all title compounds was tested by the MTT assay, and the results were listed in Table 2. The survival rates were above 80% for all BAPs (4-30) at the concentration of 5.0 μM.

A549 = assay: Modified MTT cytotoxicity assay, A549; conditions: for SI (selectivity index) A549: quotient of IC50 for normal (HHL-5) and malignant (A549) cells
Protocol: (§3) To further verify the anti-tumour activity, one human non-small cell lung cancer cell line (A549), one human ovarian cancer cell line (A2780), and one human normal heptical cell line (HHL-5) were screened by BAPs (4–30) using a modified MTT assay (Supporting Information). DOX and curcumin were selected as positive controls.
(§4) The optical density (OD) value of each well was measured on a
(§5) multi-well plate reader (TECAN, Mӓnnedorf, Switzerland ) at 570 nm.
(§6) Every IC 50 value was the average of three replicates.
(§7) Doxorubicin (DOX) and Curcumin were used as positive controls.

A2780 = assay: Modified MTT cytotoxicity assay, A2780; conditions: for SI (selectivity index) A2780: quotient of IC50 for normal (HHL-5) and malignant (A2780) cells
IL-6 = assay: ELISA of IL-6 release in LPS-stimulated RAW264.7 cells; format: cell-based, mouse; conditions: RAW264.7, ELISA; for inhibition at 5 µM: Mus musculus, RAW264.7, BAPs (5 μM) + LPS (1 μg/mL), read-out: Inhibition rate IL-6; for Inhibition rate IL-6: BAPs (5 μM) + LPS (1 μg/mL)
Protocol: (§1) We tested by inhibiting the secretion of TNF-α and IL-6 to better evaluated the anti-inflammatory effects of BAPs. […] Under the stimulation of LPS (1.0 μg/mL) with RAW264.7 cells, the release of TNF-α and IL-6 was detected. Besides, after treated with BAPs (5.0 μM) and LPS (1.0 μg/mL), the release of TNF-α and IL-6 was measured with an ELISA kit (eBioScience, San Diego, California), respectively. In general terms, pyrrolidine dithiocarbamate (PDTC, 30 μM) or BAP (5.0 μM) was used to pretreat cells for 2 h, respectively. Then, LPS (1.0 μg/mL) was added and cells were incubated for another 22 h. Finally, the culture media were centrifuged at 1000 rpm for 10 min, and the expression levels of TNF-α and IL-6 were determined by ELISA.

SMMC-7721 = assay: Modified MTT cytotoxicity assay, SMMC-7721; format: cell-based, Human; conditions: for IC50: MTT, 24 h incubation, three replicates; for SI (selectivity index) SMMC-7721: quotient of IC50 for normal (LO2) and malignant (SMMC-7721) cells
Protocol: (§2) The HepG2, SMMC-7721, and LO2 cell lines were maintained at 37 °C, 5% humidified CO2, and 95% atmosphere. Dulbecco's Modified Eagle (DMEM) medium containing 10% foetal bovine serum (FBS) was used for culturing the HepG2 cell line; meanwhile, Roswell Park Memorial Institute (RPMI) 1640 medium containing 10% FBS was used for culturing other cell lines (SMMC-7721, LO2). The HepG2, SMMC-7721 and LO2 cells were seeded in a 96-well plate in 200 μL of medium per well at a density of approximately 8 × 10^3 cells/well and cultured for 24 h, followed by incubation in an incubator of indicated compounds with successive concentrations (10, 5, 2.5, 1.25, 0.625, 0.3125 μg/mL) for 24 h. In the control group, cells were only cultured with culture media. After the media were removed, 20 μL of MTT (5 mg/mL) was added, then cells were incubated for 4 h at 37 °C. […] GraphPad Prism 5 software was used to calculate their IC50 values. Every IC50 value was the average of three replicates. Doxorubicin (DOX) and curcumin were used as positive controls.

TNF-α = assay: ELISA of TNF-α release in LPS-stimulated RAW264.7 cells; format: cell-based, mouse; conditions: RAW264.7, ELISA; for inhibition at 5 µM: Mus musculus, RAW264.7, BAPs (5 μM) + LPS (1 μg/mL), read-out: Inhibition rate TNF-α; for Inhibition rate TNF-α: BAPs (5 μM) + LPS (1 μg/mL)
Protocol: as §1

HepG2 = assay: Modified MTT cytotoxicity assay, HepG2; format: cell-based, Human; conditions: for IC50: MTT, 24 h incubation, three replicates, read-out: Cytotoxicity IC50 HepG2; for SI (selectivity index) HepG2: quotient of IC50 for normal (LO2) and malignant (HepG2) cells
Protocol: as §2

[1] = Modified MTT cytotoxicity assay, normal heptical cell line LO2; format: cell-based, human; conditions: human, LO2 cells (normal hepatic cell line), 24 h incubation
Protocol: as §2

HHL-5 = assay: Modified MTT cytotoxicity assay, normal heptical cell line HHL-5; conditions: read-out: Cytotoxicity IC50 HHL-5; MTT, normal heptical cell line
Protocol: as §3, §4, §5, §6, §7

LO2 = assay: Modified MTT cytotoxicity assay, normal heptical cell line LO2; format: cell-based, human; conditions: 24 h incubation
Protocol: as §2

[2] = Modified MTT cytotoxicity assay, normal heptical cell line HHL-5; conditions: human, HHL-5 cells (normal hepatic cell line)
Protocol: as §3, §4, §5, §6, §7

[3] = Homo sapiens, A549, read-out: Cytotoxicity IC50 A549, MTT, non-small cell lung cancer cell line
[4] = Homo sapiens, A2780, read-out: Cytotoxicity IC50 A2780, MTT, ovarian cancer cell line
[5] = read-out: Cytotoxicity IC50 A549, MTT, non-small cell lung cancer cell line
[6] = read-out: Cytotoxicity IC50 A2780, MTT, ovarian cancer cell line

SMILES: O=C1/C(=C/c2ccccc2C(F)(F)F)CN(S(=O)(=O)c2ccc([N+](=O)[O-])cc2)C/C1=C\c1ccccc1C(F)(F)F [BAP 6]
- viability at 5 µM (RAW264.7 cell): 85.7 ± 3.1%
- IC50 (A549; [3]): 7.58 ± 1.76 µM
- SI (selectivity index) A549 (A549): 1.0
- IC50 (A2780; [4]): 28.8 ± 5.33 µM
- SI (selectivity index) A2780 (A2780): 0.3
- inhibition at 5 µM (IL-6): 68.2 ± 3%
- IC50 (SMMC-7721; Homo sapiens, SMMC-7721, 24 h): 10.4 ± 0.2 µM
- SI (selectivity index) SMMC-7721 (SMMC-7721): 1.5
- inhibition at 5 µM (TNF-α): 61 ± 2.7%
- IC50 (HepG2; Homo sapiens, HepG2, 24 h): 4.3 ± 0.2 µM
- SI (selectivity index) HepG2 (HepG2): 3.7
- melting point: 204 to 206 °C
- IC50 at 24 h [1]: 15.7 ± 1.3 µM

SMILES: O=C1/C(=C/c2ccccc2C(F)(F)F)CN(S(=O)(=O)c2ccc(C(F)(F)F)cc2)C/C1=C\c1ccccc1C(F)(F)F [BAP 7]
- Survival rate RAW264.7 cell (RAW264.7 cell): 87.3 ± 1.9%
- SI (selectivity index) A549 (A549): 3.4
- IC50 (A549; [5]): 2.68 ± 0.53 µM
- SI (selectivity index) A2780 (A2780): 27.6
- IC50 (A2780; [6]): 0.33 ± 0.03 µM
- Inhibition rate IL-6 (IL-6; 5 µM): ca. 71.2%
- Inhibition rate IL-6 (IL-6; listed as 7, 5 µM): 71.2 ± 1.3%
- IC50 (HHL-5): 9.1 ± 0.2 µM
- IC50 (SMMC-7721): ~2.6 µM
- IC50 (SMMC-7721; listed as 7): 2.6 ± 0.2 µM
- SI (selectivity index) SMMC-7721 (SMMC-7721): 6.6
- Inhibition rate TNF-α (TNF-α; 5 µM): ca. 69.9%
- Inhibition rate TNF-α (TNF-α; listed as 7, 5 µM): 69.9 ± 1.1%
- IC50 (HepG2; listed as 7): 2.1 ± 0.1 µM
- IC50 (HepG2): ~2.1 µM
- SI (selectivity index) HepG2 (HepG2): 8.2
- IC50 (LO2): 17.2 ± 0.2 µM

SMILES: O=C1/C(=C/c2ccccc2C(F)(F)F)CN(S(=O)(=O)c2ccc(Br)cc2)C/C1=C\c1ccccc1C(F)(F)F [BAP 10]
- viability at 5 µM (RAW264.7 cell): 83.8 ± 2.9%
- IC50 (A549; [3]): 5.01 ± 0.45 µM
- SI (selectivity index) A549 (A549): 2.9
- IC50 (A2780; [4]): 2.34 ± 0.39 µM
- SI (selectivity index) A2780 (A2780): 6.2
- inhibition at 5 µM (IL-6): 67.8 ± 3.2%
- IC50 [2]: 14.5 ± 0.1 µM
- IC50 (SMMC-7721; Homo sapiens, SMMC-7721, 24 h): 4.7 ± 0.1 µM
- SI (selectivity index) SMMC-7721 (SMMC-7721): 3.6
- inhibition at 5 µM (TNF-α): 59.2 ± 2.8%
- IC50 (HepG2; Homo sapiens, HepG2, 24 h): 14.7 ± 0.1 µM
- SI (selectivity index) HepG2 (HepG2): 1.2
- melting point: 197 to 199 °C
- IC50 at 24 h [1]: 17 ± 0.4 µM

SMILES: CC(=O)Nc1ccc(S(=O)(=O)N2C/C(=C\c3ccccc3C(F)(F)F)C(=O)/C(=C/c3ccccc3C(F)(F)F)C2)cc1 [BAP 12]
- Survival rate RAW264.7 cell (RAW264.7 cell): 86.4 ± 0.7%
- SI (selectivity index) A549 (A549): 3.3
- IC50 (A549; [5]): 2.39 ± 0.09 µM
- SI (selectivity index) A2780 (A2780): 6.5
- IC50 (A2780; [6]): 1.22 ± 0.06 µM
- Inhibition rate IL-6 (IL-6): 62.8 ± 3.0%
- IC50 (HHL-5): 7.9 ± 0.2 µM
- IC50 (SMMC-7721): 10.9 ± 0.4 µM
- SI (selectivity index) SMMC-7721 (SMMC-7721): 1.4
- Inhibition rate TNF-α (TNF-α): 67.2 ± 2.4%
- IC50 (HepG2): 12.9 ± 0.1 µM
- SI (selectivity index) HepG2 (HepG2): 1.2
- IC50 (LO2): 15.6 ± 1.3 µM

SMILES: CC(=O)Nc1ccc(S(=O)(=O)N2C/C(=C\c3cccc(C(F)(F)F)c3)C(=O)/C(=C/c3cccc(C(F)(F)F)c3)C2)cc1 [BAP 21]
- Survival rate RAW264.7 cell (RAW264.7 cell): 90.2 ± 3.6%
- SI (selectivity index) A549 (A549): 14.3
- IC50 (A549; [5]): 0.21 ± 0.01 µM
- SI (selectivity index) A2780 (A2780): 17.6
- IC50 (A2780; [6]): 0.17 ± 0.01 µM
- Inhibition rate IL-6 (IL-6): 71.6 ± 5.3%
- IC50 (HHL-5): 3 ± 0.6 µM
- IC50 (SMMC-7721): 5.1 ± 0.1 µM
- SI (selectivity index) SMMC-7721 (SMMC-7721): 2.8
- Inhibition rate TNF-α (TNF-α): 78.5 ± 4.2%
- IC50 (HepG2): 1.3 ± 0.1 µM
- SI (selectivity index) HepG2 (HepG2): 11.1
- IC50 (LO2): 14.4 ± 0.1 µM

SMILES: Cc1ccc(S(=O)(=O)N2C/C(=C\c3ccc(C(F)(F)F)cc3)C(=O)/C(=C/c3ccc(C(F)(F)F)cc3)C2)cc1 [BAP 23]
- Survival rate RAW264.7 cell (RAW264.7 cell): 89.2 ± 3.0%
- SI (selectivity index) A549 (A549): 23.3
- IC50 (A549; [5]): 0.15 ± 0.02 µM
- SI (selectivity index) A2780 (A2780): 21.9
- IC50 (A2780; [6]): 0.16 ± 0.02 µM
- Inhibition rate IL-6 (IL-6): 69.2 ± 6.3%
- IC50 (HHL-5): 3.5 ± 0.2 µM
- IC50 (SMMC-7721): ~0.8 µM
- IC50 (SMMC-7721; listed as 23): 0.8 ± 0.2 µM
- SI (selectivity index) SMMC-7721 (SMMC-7721): 16.4
- Inhibition rate TNF-α (TNF-α): 78.1 ± 3.2%
- IC50 (HepG2; listed as 23): 1 ± 0.3 µM
- IC50 (HepG2): ~1 µM
- SI (selectivity index) HepG2 (HepG2): 13.1
- IC50 (LO2): 13.1 ± 0.3 µM

SMILES: O=C1/C(=C/c2ccc(C(F)(F)F)cc2)CN(S(=O)(=O)c2ccc([N+](=O)[O-])cc2)C/C1=C\c1ccc(C(F)(F)F)cc1 [BAP 24]
- Survival rate RAW264.7 cell (RAW264.7 cell): 89.0 ± 1.6%
- SI (selectivity index) A549 (A549): 44.1
- IC50 (A549; [5]): 0.17 ± 0.01 µM
- SI (selectivity index) A2780 (A2780): 44.1
- IC50 (A2780; [6]): 0.17 ± 0.02 µM
- Inhibition rate IL-6 (IL-6): 57.3 ± 2.1%
- IC50 (HHL-5): 7.5 ± 0.6 µM
- IC50 (SMMC-7721): 3.2 ± 0.3 µM
- SI (selectivity index) SMMC-7721 (SMMC-7721): 4.5
- Inhibition rate TNF-α (TNF-α): 65.0 ± 1.8%
- IC50 (HepG2): 1.2 ± 0.3 µM
- SI (selectivity index) HepG2 (HepG2): 12.0
- IC50 (LO2): 14.4 ± 0.1 µM

SMILES: CC(=O)Nc1ccc(S(=O)(=O)N2C/C(=C\c3ccc(C(F)(F)F)cc3)C(=O)/C(=C/c3ccc(C(F)(F)F)cc3)C2)cc1 [BAP 30]
- Survival rate RAW264.7 cell (RAW264.7 cell): 92.0 ± 1.3%
- SI (selectivity index) A549 (A549): 21.4
- IC50 (A549; [5]): 0.098 ± 0.01 µM
- SI (selectivity index) A2780 (A2780): 16.2
- IC50 (A2780; [6]): 0.13 ± 0.02 µM
- Inhibition rate IL-6 (IL-6): 70.1 ± 1.2%
- IC50 (HHL-5): 2.1 ± 0.1 µM
- IC50 (SMMC-7721): 3.1 ± 0.2 µM
- SI (selectivity index) SMMC-7721 (SMMC-7721): 4.6
- Inhibition rate TNF-α (TNF-α): 68.3 ± 3.1%
- IC50 (HepG2): 1.8 ± 0.2 µM
- SI (selectivity index) HepG2 (HepG2): 7.9
- IC50 (LO2): 14.2 ± 1.1 µM
